Data as given in US20260124192A1, “COMPOUNDS, COMPOSITIONS, AND METHODS OF TREATING RNA VIRAL INFECTIONS” (priority 2024, published 2026).
Read-outs that look alike come from different tables or passages of the source.

Key:
[1] = test system: MCF7 wild-type cell lines; assay: MCF7 growth inhibition assay (Cell Titre Glo 2.0); type: cell-based; conditions: Homo sapiens
Procedure: The growth inhibition properties of inhibitors on MCF7 wild-type cell lines were evaluated using the Cell Titre Glo 2.0 cell viability reagent. The assay utilized 384-well black clear bottom plates with 20 μl of MCF7 wild-type cell suspension mixed with reference/test compounds and 20 μl of Cell Titre Glo 2.0 reagent. Cells were seeded at a density of 1000 cells/well in DMEM High Glucose culture media+10% Fetal Bovine Serum (FBS). Staurosporine and Camptothecin served as positive controls for confirming cytotoxicity at a concentration of 30 μM, and vehicle control of 1% DMSO was used to standardize conditions across all test points. The assay and culture media both contained 1% DMSO. Assays were conducted in duplicate for each concentration of the test compounds. The incubation period for the assay was set at 120 hours, after which growth inhibition was assessed. Using a multi-mode reader, the assay readout was based on luminescence measured in Relative Light Units (RLUs). The viability luminescence signal was monitored continually from the same wells over an extended period, allowing for detailed analysis of cell viability. Measurements were taken using an integration time ranging from 0.25 to 1 second across plates designated for various time points.
Cells were maintained and seeded in 384 […] plates, maintaining 1000 cells/well. Seeded plates were incubated at 37° C., 5% CO2 for 16-18 hours to ensure optimal cell adherence and growth. Post-incubation, reference, and test compounds were added carefully to the wells for further processing. Plates were incubated again at 37° C., 5% CO2 for 120 hours (5 days) to allow compound effects. This was followed by the addition of CTG reagent as per the kit's instruction protocol for 30 minutes and RLU data to be recorded. Post plate read data to be analyzed using GraphPad Prism for software IC50 value generation.
Next, the NCEs were tested for selective estrogen regulation modulation activity by using a growth inhibition assay. The assay is performed on MCF7 cells, which are derived from a hormone-dependent breast cancer that stops growing upon estrogen receptor inhibition. […] Staurosporine and Camptothecin served as positive controls for cytotoxicity and 1% DMSO as the vehicle control.

Huh-luc/neo-ET cells = assay: XTT cell viability assay, Huh-luc/neo-ET; type: cell-based; conditions: XTT, 72 hours, read-out: HCV 1b - TC50
Procedure: (§1) Twenty-four hours after seeding the cells, the cell culture supernatant was removed from each well and replaced with 175 μL fresh complete medium minus G418. Test compounds were evaluated at a high-test concentration of 10 μM and five serial half-logarithmic dilutions in three biological replicates. In three biological replicates, Sofosbuvir was evaluated in parallel at a high-test concentration of 1 μM and five serial half-logarithmic dilutions. Compounds were first serially diluted in DMSO to 400× of each final in-well concentration. An intermediate 8× solution was prepared in a complete medium and then added to the cells in a volume of 25 μL per well. A complete medium containing an equal percentage of DMSO (v/v) was added to vehicle-treated control cells. The final DMSO concentration was 0.25% (v/v) for all samples. The cells were incubated for an additional 72 hours at 37° C./5% CO2, then HCV replication was measured by luciferase activity and cell viability was assessed in parallel using an XTT colorimetric assay.
(§2) Huh-luc/neo-ET cell viability was measured at 72 hours after treatment using the tetrazolium dye XTT (2,3-bis(2-methoxy-4-nitro-5-sulfophenyI)-5[(phenylamino)carbonyl]-2H-tetrazolium hydroxide). Mitochondrial enzymes of metabolically active cells metabolize XTT-tetrazolium to a soluble formazan product. XTT solution was prepared fresh at 1 mg/mL in DMEM. Phenazine methosulfate (PMS) solution was prepared at 0.15 mg/mL in PBS and stored in the dark at −20° C. An XTT/PMS stock was prepared immediately before use by adding 40 μL of PMS per ml of XTT solution. Fifty microliters (50 μL) XTT/PMS were added per well, and the cells were incubated for 4 hours at 37° C. The cell culture plates were then sealed with adhesive plate sealers and shaken gently or inverted several times to mix the soluble formazan product. The formazan product was measured spectrophotometrically by absorbance at 450/650 nm on a Vmax plate reader (Molecular Devices). The raw data in Softmax Pro 5.4.2 software was imported into Microsoft Excel for further analysis. Data are presented as absorbance values (450/650 nm) or the percentage of viable cells relative to vehicle-treated control (mean+1—standard deviation, n=3 biological replicates from one independent experiment).

CoV229E = assay: Anti-Coronavirus 229E cytoprotection (CPE) assay, MRC-5 (Method 3); type: cell-based, human Coronavirus 229E
MRC-5 cells = assay: Cytotoxicity, XTT, MRC-5; conditions: read-out: CoV229E - TC50; MRC-5; XTT; six days
HCV genotype 1b replicon = assay: microbe, parasite or virus in culture; type: cell-based, Hepatitis C Virus; conditions: for EC50: Hepatitis C virus; for HCV 1b - percent effect: @ 10 μM
[2] = XTT cell viability assay, Huh-luc/neo-ET; type: cell-based; conditions: human, Huh-luc/neo-ET cells, XTT, 72 hours, read-out: HCV 1b - TC50
Procedure: as §1, §2

Cytotoxicity, XTT, MRC-5 = conditions: human
[3] = Huh-luc/neo-ET replicon, 72 hours, luciferase, read-out: HCV 1b - EC50
[4] = Human coronavirus 229E, MRC5, […], read-out: CoV229E - EC50 (μM), MRC-5, XTT cytoprotection, six days
[5] = MCF7 growth inhibition, 120 hours, read-out: MCF-7 IC50

Row | Structure (SMILES) | EC50 (HCV genotype 1b replicon; [3]) [µM] | CC50 at 72 h [2] [µM] | EC50 (CoV229E; [4]) [µM] | CC50 at 6 days (Cytotoxicity, XTT, MRC-5) [µM] | IC50 [1, 5] [µM] | also measured
1 | C[C@]12CC[C@@H]3c4ccc(O)cc4C[C@@H](CCCCCCCCC[S+]([O-])CCCC(F)(F)C(F)(F)F)[C@H]3[C@@H]1CC[C@@H]2O (stereo partly shown) [Fulvestrant, reference compound] | – | – | – | – | – | IC50 ([1]; MCF7, 120 h, read-out: MCF-7 IC50 (μM)): 0.00089 µM; IC50 ([1]; MCF7, read-out: IC50, MCF7 growth inhibition): 0.00089 µM
2 | COc1ccc(-c2c(Cc3ccc(OCCN4CCCCC4)cc3)c3ccc(OC)cc3n2C)cc1 [MCAA-01] | – | – | – | – | – | CC50 (Huh-luc/neo-ET cells): > 10 µM; EC50 (CoV229E; MRC-5, XTT cytoprotection, six days, read-out: CoV229E - EC50): 1.88 µM; CC50 (MRC-5 cells): > 5 µM
3 | O=C(O)c1ccc(-c2c(CC3CCCC3)c3ccc(F)cc3n2Cc2ccc(OCCN3CCCCC3)cc2)cc1 [MCAA-02] | > 10 | > 10 | 2.78 | > 5 | > 10 | –
4 | O=C(O)c1ccc(-c2c(CC3CCCC3)c3ccc(F)cc3n2Cc2ccc(OCCC3CCCCC3)cc2)cc1 [MCAA-03] | 8.43 | > 10 | – | 2.47 | > 10 | CoV229E - percent effect (CoV229E; @ 5 μM, MRC-5): 24% @
5 | Cc1c(-c2ccc(O)cc2)n(Cc2ccc(OCCC3CCCCC3)cc2)c2ccc(O)cc12 [MCAA-04] | > 10 | > 10 | – | 2.7 | 2.24 | CoV229E - percent effect (CoV229E; @ 1.58 μM, MRC-5): 25% @
6 | COc1ccc(-c2c(Cc3ccc(OCCC4CCCCC4)cc3)c3ccc(OC)cc3n2C)cc1 [MCAA-05] | > 10 | > 10 | > 5 | > 5 | > 10 | –
7 | Fc1ccc(-c2cc3sccc3n2Cc2ccc(OCCN3CCCCC3)cc2)cc1 [MCAA-06] | > 10 | > 10 | 0.29 | 1.53 | 3.77 | –
8 | Fc1ccc(-c2cc3sccc3n2Cc2ccc(OCCC3CCCCC3)cc2)cc1 [MCAA-07] | – | > 10 | – | > 5 | > 10 | HCV 1b - percent effect (HCV genotype 1b replicon; Huh-luc/neo-ET replicon): 30% @; CoV229E - percent effect (CoV229E; @ 5 μM, MRC-5): 11% @
9 | Nc1cccc2nc(-c3ccc(F)cc3)n(Cc3ccc(OCCN4CCCCC4)cc3)c12 [MCAA-08] | 9.59 | > 10 | – | > 5 | > 10 | CoV229E - percent effect (CoV229E; @ 5 μM, MRC-5): 33% @
10 | Nc1cccc2nc(-c3ccc(F)cc3)n(Cc3ccc(OCCC4CCCCC4)cc3)c12 [MCAA-09] | > 10 | > 10 | – | > 5 | 1.21 | CoV229E - percent effect (CoV229E; @ 5 μM, MRC-5): 13% @
11 | Nc1cccc2c1nc(-c1ccc(F)cc1)n2Cc1ccc(OCCN2CCCCC2)cc1 [MCAA-10] | 7.2 | > 10 | 2.85 | > 5 | 0.53 | –
12 | Nc1cccc2c1nc(-c1ccc(F)cc1)n2Cc1ccc(OCCC2CCCCC2)cc1 [MCAA-11] | 4.19 | 5.82 | 2.74 | > 5 | 1.66 | –
13 | O=[N+]([O-])c1cccc2nc(-c3ccc(F)cc3)n(Cc3ccc(OCCN4CCCCC4)cc3)c12 [MCAA-12] | 2.78 | > 10 | 2.94 | > 5 | 1.15 | –
14 | O=[N+]([O-])c1cccc2c1nc(-c1ccc(F)cc1)n2Cc1ccc(OCCN2CCCCC2)cc1 [MCAA-13] | 7.05 | > 10 | 2.96 | > 5 | 2.47 | –
15 | O=[N+]([O-])c1cccc2nc(-c3ccc(F)cc3)n(Cc3ccc(OCCC4CCCCC4)cc3)c12 [MCAA-14] | – | > 10 | – | > 5 | 4.38 | HCV 1b - percent effect (HCV genotype 1b replicon; Huh-luc/neo-ET replicon): 34% @; CoV229E - percent effect (CoV229E; @ 5 μM, MRC-5): 31% @
16 | O=[N+]([O-])c1cccc2c1nc(-c1ccc(F)cc1)n2Cc1ccc(OCCC2CCCCC2)cc1 [MCAA-15] | – | > 10 | > 5 | > 5 | 0.57 | HCV 1b - percent effect (HCV genotype 1b replicon; Huh-luc/neo-ET replicon): 38% @
17 | CCC(CC)COC(=O)[C@H](C)N[P@](=O)(OC[C@H]1O[C@@](C#N)(c2ccc3c(N)ncnn23)[C@H](O)[C@@H]1O)Oc1ccccc1 [Remdesivir, reference compound] | – | – | – | > 1 | – | EC50 (CoV229E; Human coronavirus 229E, MRC5, […], read-out: CoV229E - EC50 (μM)): 0.14 µM
18 | CC(C)OC(=O)[C@H](C)N[P@](=O)(OC[C@H]1O[C@@H](n2ccc(=O)[nH]c2=O)[C@](C)(F)[C@@H]1O)Oc1ccccc1 [Sofosbuvir, reference compound] | – | > 1 | – | – | – | EC50 (HCV genotype 1b replicon; Huh-luc/neo-ET, 72 h, read-out: HCV 1b - EC50 (μM)): 0.06 µM
